Like-named read-outs stand apart in the source and are kept apart here.
Legend:
[1] = molecular target: T1, ER-α (Homo sapiens, UniProt P03372); test: Breast Cancer Cell ER-α in Cell Western Assay (SP1); assay type: cell-based; settings: MCF7, read-out: ER In-Cell Western Assay (SP1); Max Response
T1 construct: endogenous in cells; host or cells: MCF-7
Description: MCF-7 cells were adjusted to a concentration of 200,000 cells per mL in RPMI containing 10% charcoal-stripped FBS and 20 mM HEPES. 16 microliters of the cell suspension (3200 cells) was added to each well of a poly-D-lysine 384 well plate, and the cells were incubated overnight to allow the cells to adhere. The following day an eleven point, serial semilog dilution of each compound was added to the cells in 16 μL at a final concentration ranging from 0.3-0.000003 μM. At 4 or 24 hr post compound addition, the cells were fixed (10% formalin in PBS) for 20 minutes. Cells were permeablized in PBS 0.1% Triton and blocked with LICOR blocking buffer (50 μl/well, 90′). The wells were then incubated overnight at 4° C. with SP1 rabbit monoclonal Ab (Thermo Scientific) diluted 1:1000 in LICOR blocking buffer/0.1% Tween-20. Wells which were treated with blocking buffer with Tween but no antibody were used as a background control. Wells were washed with 0.1% Tween-20/PBS and then incubated in goat anti-rabbit IRDye™ 800 CW (LICOR Inc.; 1:1000) and DRAQ5 DNA dye (1:2000 for 2 mM stock) diluted in LICOR blocking buffer containing 0.1% Tween-20 and 0.01% SDS for 60 minutes. Cells were washed (50 μl/well, 5′ each) in 0.1% Tween-20/PBS. Plates were scanned on a LICOR Odyssey infrared imaging system. Integrated intensities in the 800 nm channel and 700 nm channel were measured to determine levels of ER and DNA respectively. Percent ER levels were determined as follows: (Integrated intensity 800 nm sample/integrated intensity 700 nm sample)/(Integrated intensity 800 nm untreated cells/integrated intensity 700 nm untreated cells)×100=% ER levels.

[2] = test system: MCF-7 cells; test: Breast Cancer Cell Viability Assay (MCF7 Viability Assay); assay type: cell-based; settings: for IC50: Homo sapiens, MCF7, 120 h, read-out: MCF7 Viability Assay IC50
Description: MCF-7 cells were adjusted to a concentration of 20,000 cells per mL in RPMI containing 10% FBS and 20 mM HEPES. 16 microliters of the cell suspension (320 cells) was added to each well of a 384 well plate, and the cells were incubated overnight to allow the cells to adhere. The following day an eleven point, serial semilog dilution of each compound was added to the cells in 16 μL at a final concentration ranging from 0.3-0.000003 μM. After 5 days' compound exposure, 16 μL of CellTiter-GLo (Promega, Madison Wis.) was added to the cells the relative luminescence units (RLUs) of each well was determined. CellTiter-Glo added to 32 μL of medium without cells was used to obtain a background value. The Percent viability of each sample was determined as follows: (RLU sample-RLU background/RLU untreated cells-RLU background)×100=% viability.

[3] = MCF-7 cells, 5 days' compound exposure, CellTiter-Glo

T1 sequence (P03372 whole entry): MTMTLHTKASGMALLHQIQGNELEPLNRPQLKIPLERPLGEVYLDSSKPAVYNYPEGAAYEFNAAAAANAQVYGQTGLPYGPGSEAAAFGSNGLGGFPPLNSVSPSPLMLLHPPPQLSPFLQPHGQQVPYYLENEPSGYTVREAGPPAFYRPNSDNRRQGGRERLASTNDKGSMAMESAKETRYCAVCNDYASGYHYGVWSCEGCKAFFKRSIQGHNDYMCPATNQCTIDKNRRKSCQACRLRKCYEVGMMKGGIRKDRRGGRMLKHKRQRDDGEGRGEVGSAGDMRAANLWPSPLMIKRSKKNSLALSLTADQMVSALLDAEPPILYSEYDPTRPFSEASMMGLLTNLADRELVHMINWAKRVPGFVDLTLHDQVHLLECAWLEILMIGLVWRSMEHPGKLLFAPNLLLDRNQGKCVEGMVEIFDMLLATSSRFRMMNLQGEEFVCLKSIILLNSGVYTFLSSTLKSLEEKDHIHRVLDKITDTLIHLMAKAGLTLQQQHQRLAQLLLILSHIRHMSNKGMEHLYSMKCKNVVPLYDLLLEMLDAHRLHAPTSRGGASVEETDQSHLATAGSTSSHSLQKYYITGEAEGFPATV

| IC50 [2] [nM] | Compound | Emax [1] [%] | IC50 [2, 3] [nM] | MCF7 Viability Assay Max Response [2, 3] |
| --- | --- | --- | --- | --- |
| – | Cc1c(-c2ccc(O)cc2)n(Cc2ccc(OCCN3CC[C@@H](CF)C3)cc2)c2ccc(O)cc12 [Example 28, (R)-1-(4-(2-(3-(Fluoromethyl)pyrrolidin-1-yl)ethoxy)benzyl)-2-(4-hydroxyphenyl)-3-methyl-1H-indol-5-ol] | > 85 | < 1 | ++ (a single % value ≧ 50%) |
| < 1 | CC1=C(c2cccc(O)c2)C(c2ccc(OCCN3CC[C@@H](CF)C3)cc2)Oc2ccc(O)cc21 (stereo partly drawn) [Example 2, 2-(4-(2-((R)-3-(Fluoromethyl)pyrrolidin-1-yl)ethoxy)phenyl)-3-(3-hydroxyphenyl)-4-methyl-2H-chromen-6-ol] | > 85 | – | ++ (a single % value ≧ 50%) |
| – | CC1=C(c2ccc(O)c(F)c2)C(c2ccc(OC[C@H](C)N3CC[C@@H](CF)C3)cc2)Oc2ccc(O)cc21 (stereo partly drawn) [Example 13, 3-(3-Fluoro-4-hydroxyphenyl)-2-(4-((S)-2-((R)-3-(fluoromethyl)pyrrolidin-1-yl)propoxy)phenyl)-4-methyl-2H-chromen-6-ol] | > 85 | < 1 | ++ (a single % value ≧ 50%) |
| – | CC1=C(c2cc(O)cc(F)c2)C(c2ccc(OC[C@H](C)N3CC[C@@H](CF)C3)cc2)Oc2ccc(O)cc21 (stereo partly drawn) [Example 12, 3-(3-Fluoro-5-hydroxyphenyl)-2-(4-((S)-2-((R)-3-(fluoromethyl)pyrrolidin-1-yl)propoxy)phenyl)-4-methyl-2H-chromen-6-ol] | > 85 | < 1 | ++ (a single % value ≧ 50%) |
| – | CC1=C(c2ccc(Cl)cc2)C(c2ccc(OCCN3CC[C@@H](CF)C3)cc2)Oc2ccc(O)cc21 (stereo partly drawn) [Example 4, 3-(4-Chlorophenyl)-2-(4-(2-((R)-3-(fluoromethyl)pyrrolidin-1-yl)ethoxy)phenyl)-4-methyl-2H-chromen-6-ol] | > 85 | > 1 | ++ (a single % value ≧ 50%) |
| – | CCN(CCOc1ccc(C2Oc3ccc(O)cc3C(C)=C2c2cccc(O)c2)cc1)CCC(F)(F)F (stereo not shown) [Example 25, 2-(4-(2-(Ethyl(3,3,3-trifluoropropyl)amino)ethoxy)phenyl)-3-(3-hydroxyphenyl)-4-methyl-2H-chromen-6-ol] | < 60 | > 1 | + (a single % value < 50%) |
| – | CC1=C(c2ccc(F)cc2)C(c2ccc(OC[C@H](C)N3CC[C@@H](CF)C3)cc2)Oc2ccc(O)cc21 (stereo partly shown) [Example 27] | > 85 | > 1 | ++ (a single % value ≧ 50%) |
| > 1 | CC1=C(c2cccc(O)c2)[C@@H](c2ccc(OC[C@H](C)N3CC[C@@H](CF)C3)cc2)Oc2ccc(O)cc21 (single isomer, unassigned) [Example 3a] | > 85 | – | ++ (a single % value ≧ 50%) |
| – | CC1=C(c2ccc(C#N)cc2)C(c2ccc(OC[C@H](C)N3CC[C@@H](CF)C3)cc2)Oc2ccc(O)cc21 (stereo partly shown) [Example 16] | > 85 | > 1 | ++ (a single % value ≧ 50%) |
| < 1 | CC1=C(c2cccc(O)c2)C(c2ccc(OCCN3CC(CF)C3)cc2)Oc2ccc(O)cc21 (stereo not shown) [Example 1, 2-(4-(2-(3-(Fluoromethyl)azetidin-1-yl)ethoxy)phenyl)-3-(3-hydroxyphenyl)-4-methyl-2H-chromen-6-ol] | > 85 | – | ++ (a single % value ≧ 50%) |
| – | CC1=C(c2ccc(O)c(F)c2)C(c2ccc(OCCN3CC[C@@H](CF)C3)cc2)Oc2ccc(O)cc21 (stereo partly drawn) [Example 5, 3-(3-Fluoro-4-hydroxyphenyl)-2-(4-(2-((R)-3-(fluoromethyl)pyrrolidin-1-yl)ethoxy)phenyl)-4-methyl-2H-chromen-6-ol] | > 85 | < 1 | ++ (a single % value ≧ 50%) |
| – | CC1=C(c2cc(O)c(F)c(F)c2)C(c2ccc(OCCN3CC[C@@H](CF)C3)cc2)Oc2ccc(O)cc21 (stereo partly drawn) [Example 6, 3-(3,4-Difluoro-5-hydroxyphenyl)-2-(4-(2-((R)-3-(fluoromethyl)pyrrolidin-1-yl)ethoxy)phenyl)-4-methyl-2H-chromen-6-ol] | > 85 | < 1 | ++ (a single % value ≧ 50%) |
| – | CC1=C(c2cccc(O)c2)C(c2ccc(OCCN3CCC(F)CC3)cc2)Oc2ccc(O)cc21 (stereo not shown) [Example 17, 2-(4-(2-(4-Fluoropiperidin-1-yl)ethoxy)phenyl)-3-(3-hydroxyphenyl)-4-methyl-2H-chromen-6-ol] | 60 to 85 | < 1 | ++ (a single % value ≧ 50%) |
| – | CC1=C(c2ccc(F)c(O)c2)C(c2ccc(OC[C@H](C)N3CC[C@@H](CF)C3)cc2)Oc2ccc(O)cc21 (stereo partly drawn) [Example 11, 3-(4-Fluoro-3-hydroxyphenyl)-2-(4-((S)-2-((R)-3-(fluoromethyl)pyrrolidin-1-yl)propoxy)phenyl)-4-methyl-2H-chromen-6-ol] | > 85 | < 1 | ++ (a single % value ≧ 50%) |
| > 1 | CC1=C(c2cccc(O)c2)C(c2ccc(OCCN3CCC[C@H]3CF)cc2)Oc2ccc(O)cc21 (stereo partly drawn) [Example 18, 2-(4-(2-((S)-2-(Fluoromethyl)pyrrolidin-1-yl)ethoxy)phenyl)-3-(3-hydroxyphenyl)-4-methyl-2H-chromen-6-ol] | 60 to 85 | – | ++ (a single % value ≧ 50%) |
| < 1 | CC1=C(c2cccc(O)c2)[C@H](c2ccc(OC[C@H](C)N3CC[C@@H](CF)C3)cc2)Oc2ccc(O)cc21 (single isomer, unassigned) [Example 3b] | > 85 | – | ++ (a single % value ≧ 50%) |
| – | CC1=C(c2cc(O)cc(F)c2)C(c2ccc(OCCN3CC[C@@H](CF)C3)cc2)Oc2ccc(O)cc21 (stereo partly drawn) [Example 10, 3-(3-Fluoro-5-hydroxyphenyl)-2-(4-(2-((R)-3-(fluoromethyl)pyrrolidin-1-yl)ethoxy)phenyl)-4-methyl-2H-chromen-6-ol] | > 85 | < 1 | ++ (a single % value ≧ 50%) |
| – | CC1=C(c2cccc(O)c2)C(c2ccc(OCCN(C)CCCF)cc2)Oc2ccc(O)cc21 (stereo not shown) [Example 22, 2-(4-(2-((3-Fluoropropyl)(methyl)amino)ethoxy)phenyl)-3-(3-hydroxyphenyl)-4-methyl-2H-chromen-6-ol] | < 60 | < 1 | + (a single % value < 50%) |
| – | CCN(CCCF)CCOc1ccc(C2Oc3ccc(O)cc3C(C)=C2c2cccc(O)c2)cc1 (stereo not shown) [Example 24, 2-(4-(2-(Ethyl(3-fluoropropyl)amino)ethoxy)phenyl)-3-(3-hydroxyphenyl)-4-methyl-2H-chromen-6-ol] | < 60 | < 1 | ++ (a single % value ≧ 50%) |
| < 1 | CC1=C(c2cccc(O)c2)[C@H](c2ccc(OCCN3CC[C@@H](CF)C3)cc2)Oc2ccc(O)cc21 (single isomer, unassigned) [Example 2b] | > 85 | – | ++ (a single % value ≧ 50%) |
| – | CC1=C(c2cccc(O)c2)C(c2ccc(OCCN3CCC(CF)CC3)cc2)Oc2ccc(O)cc21 (stereo not shown) [Example 19, 2-(4-(2-(4-(Fluoromethyl)piperidin-1-yl)ethoxy)phenyl)-3-(3-hydroxyphenyl)-4-methyl-2H-chromen-6-ol] | 60 to 85 | – | – |
| – | CC1=C(c2cccc(O)c2)C(c2ccc(OCCN3CCC[C@@H](CF)C3)cc2)Oc2ccc(O)cc21 (stereo partly drawn) [Example 20, 2-(4-(2-((R)-3-(Fluoromethyl)piperidin-1-yl)ethoxy)phenyl)-3-(3-hydroxyphenyl)-4-methyl-2H-chromen-6-ol] | < 60 | < 1 | + (a single % value < 50%) |
| – | CC1=C(c2ccc(Cl)cc2)C(c2ccc(OC[C@H](C)N3CC[C@@H](CF)C3)cc2)Oc2ccc(O)cc21 (stereo partly drawn) [Example 15, 3-(4-Chlorophenyl)-2-(4-((S)-2-((R)-3-(fluoromethyl)pyrrolidin-1-yl)propoxy)phenyl)-4-methyl-2H-chromen-6-ol] | > 85 | > 1 | ++ (a single % value ≧ 50%) |

From patent US9193714B2, “Fluorinated estrogen receptor modulators and uses thereof” (priority 2011, dated 2015)
